{
  "source": "paper PMC11763059",
  "about": "“GENI as an AMPK Activator Binds α and γ Subunits and Improves the Memory Dysfunction of Alzheimer’s Disease Mouse Models via Autophagy and Neuroprotection” (Antioxidants, 2025)",
  "key": {"[1]": {"target": "T1, AMPK-s1 (α subunit- D148A) (Rattus norvegicus, UniProt P54645+P80385, D159A)", "T1 construct": "His (N); made in house", "T1 sequence (P54645 13-559 D159A limits assumed)": "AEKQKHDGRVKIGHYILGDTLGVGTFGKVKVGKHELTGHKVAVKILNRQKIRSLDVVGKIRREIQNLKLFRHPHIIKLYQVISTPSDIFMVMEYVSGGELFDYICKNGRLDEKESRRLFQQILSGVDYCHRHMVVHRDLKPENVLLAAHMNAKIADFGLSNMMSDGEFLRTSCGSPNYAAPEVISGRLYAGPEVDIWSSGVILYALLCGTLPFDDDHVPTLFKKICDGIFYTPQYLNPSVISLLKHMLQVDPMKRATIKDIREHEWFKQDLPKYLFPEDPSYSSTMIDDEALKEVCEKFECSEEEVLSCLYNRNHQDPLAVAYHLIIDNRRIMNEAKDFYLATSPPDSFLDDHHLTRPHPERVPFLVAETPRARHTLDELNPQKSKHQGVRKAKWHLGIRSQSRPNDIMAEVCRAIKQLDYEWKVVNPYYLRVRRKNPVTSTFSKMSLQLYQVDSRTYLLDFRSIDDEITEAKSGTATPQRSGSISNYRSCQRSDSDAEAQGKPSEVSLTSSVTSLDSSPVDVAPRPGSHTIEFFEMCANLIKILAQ", "T1 sequence (P80386 whole entry partner)": "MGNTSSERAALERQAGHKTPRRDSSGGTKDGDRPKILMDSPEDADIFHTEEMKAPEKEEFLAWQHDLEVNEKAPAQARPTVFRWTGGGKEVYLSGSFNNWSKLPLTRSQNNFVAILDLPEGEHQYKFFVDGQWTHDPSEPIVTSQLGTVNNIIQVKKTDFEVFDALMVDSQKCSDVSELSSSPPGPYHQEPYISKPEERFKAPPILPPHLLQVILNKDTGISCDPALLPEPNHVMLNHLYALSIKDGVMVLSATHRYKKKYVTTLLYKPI", "T1 sequence (P80385 whole entry)": "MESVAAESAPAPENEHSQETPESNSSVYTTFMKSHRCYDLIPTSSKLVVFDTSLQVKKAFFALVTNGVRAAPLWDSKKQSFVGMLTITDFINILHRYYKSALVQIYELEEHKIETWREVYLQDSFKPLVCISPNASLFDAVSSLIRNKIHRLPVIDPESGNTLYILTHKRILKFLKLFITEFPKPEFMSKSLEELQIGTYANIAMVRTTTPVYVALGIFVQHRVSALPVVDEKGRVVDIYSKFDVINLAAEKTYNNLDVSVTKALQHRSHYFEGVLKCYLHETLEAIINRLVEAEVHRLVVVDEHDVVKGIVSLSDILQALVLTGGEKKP", "assay": "SPR analysis, AMPK mutant s1", "type": "binding", "protocol": "(§1) Mammalian AMPK subunits (His-α1, β1, and γ1) were cloned into a pET-3d vector, and protein expression and purification were similar to the literature.\n(§2) SPR analysis was performed with a Biacore T200 instrument (GE Healthcare). Firstly, the purred His-tagged AMPK containing α1β1γ1 protein was captured onto an activated carboxymethylated 5 (CM5) chip using amine coupling to levels ranging from 4000 RU to 6000 RU. Secondly, GENI was dissolved in PBS-P buffer solution (0.05% (v/v) Tween 20 and PBS), and the concentration of GENI was 64 μM. Thirdly, the solution of GENI was diluted to 32 μM, 16 μM, 8 μM, 4 μM, 2 μM, 1 μM and 0.5 μM with PBS-P buffer solution. The sample was filtered by pumping through a […] membrane. A gradient concentration of GENI was injected at a flow rate of 30 μL/min in a running buffer (0.05% (v/v) Tween 20 and PBS). The data were analyzed with Biacore evaluation software (T200 version 2.0) and fitted to the 1:1 Langmuir binding model, and the kinetic parameters were derived.\n(§3) The non-covalent interaction between drugs and proteins is an important way to exert drug efficacy, and its mode of action and binding affinity usually determine the utilization and biological activity of drugs. AMPK is a heterotrimer complex consisting of an α subunit containing the kinase domain and two regulatory subunits (β- and γ-). […]"}, "[2]": {"target": "T2, AMPK-s5 (γ subunit- D156A) (Rattus norvegicus, UniProt P54645+P80385, D156A)", "T2 construct": "His (N); made in house", "T2 sequence (P54645 13-559 limits assumed)": "as the sequence (P54645 13-559 D159A limits assumed) above, with A147D counted along it", "T2 sequence (P80386 whole entry partner)": "as the sequence (P80386 whole entry partner) above", "T2 sequence (P80385 whole entry D156A)": "as the sequence (P80385 whole entry) above, with D156A counted along it", "assay": "SPR analysis, AMPK mutant s5", "type": "binding", "protocol": "as §1, §2, §3"}, "[3]": {"target": "T3, AMPK-s7 (γ subunit- D316A) (Rattus norvegicus, UniProt P54645+P80385, D316A)", "T3 construct": "His (N); made in house", "T3 sequence (P54645 13-559 limits assumed)": "as the sequence (P54645 13-559 D159A limits assumed) above, with A147D counted along it", "T3 sequence (P80386 whole entry partner)": "as the sequence (P80386 whole entry partner) above", "T3 sequence (P80385 whole entry D316A)": "as the sequence (P80385 whole entry) above, with D316A counted along it", "assay": "SPR analysis, AMPK mutant s7", "type": "binding", "protocol": "as §1, §2\nThe non-covalent interaction between drugs and proteins is an important way to exert drug efficacy, and its mode of action and binding affinity usually determine the utilization and biological activity of drugs. AMPK is a heterotrimer complex consisting of an α subunit containing the kinase domain and two regulatory subunits (β- and γ-). Different action sites have varied or even opposite pharmacological effects. The molecular mechanism of interaction between the protein and molecule should be investigated thoroughly. After co-incubation of GENI and AMPK, LC-MS/MS measurements were performed to predict the binding sites. As shown in Extended Data Figure S2, ASP148, ASP157 and ASP166 of the AMPK α subunits and LYS148, ASP156, LYS309, and ASP316 of the AMPK γ subunit were possible to the binding sites of GENI. […] Thus, all of these seven sites affected the binding of GENI and AMPK to varying degrees, and they were located in the C lobe kinase domain of the AMPK α subunit, and the CBS2 and CBS4 domain of the AMPK γ subunit, respectively."}, "p53": {"system": "T4, p53", "T4 construct": "endogenous in cells", "assay": "Drug affinity responsive target stability (DARTS), p53", "type": "binding", "conditions": "0.1–100 μM GENI, protein: pronase 100:1", "protocol": "(§4) Cells were lysed by RIPA lysis buffer, and the protein concentration was measured. The lysate was divided into six groups. Before incubation with protease (protein: pronase = 50:1 w/w for PI3K and AMPK detection, 5:1 for MAPK detection, 100:1 for p53 detection) for 25 min in 25 °C, 0.1–100 μM GENI was added to lysates and incubated for 2 h at room temperature. The samples were mixed with loading buffer and then separated on 8% SDS-PAGE for immunoblotting analysis."}, "AMPK": {"system": "AMPK", "assay": "Drug affinity responsive target stability (DARTS), AMPK", "type": "binding", "conditions": "0.1–100 μM GENI, protein: pronase 50:1", "protocol": "as §4"}, "PC12 cells": {"system": "PC12 cells", "assay": "Autophagy flow assay (CYTO-ID) in PC12 cells", "type": "cell-based", "protocol": "The experiment was carried out according to the instructions of the CYTO-ID autophagy detection kit (Enzo Biochem, New York, NY, USA). In brief, we seeded 7.5 × 10^4 PC12 cells in each well of a 24-well plate using the cell slide method. The cells were incubated for 24 h at 37 °C in a 5% CO2 incubator. The experiment was divided into control (0.5% DMSO), positive control rapamycin (Rap 500 nM + chloroquine (CQ)), GENI treated-group (10 μM GENI + 10 μM CQ), 3-MA inhibitor group (5 mM 3-MA + 10 μM CQ) and GENI + 3MA group (5 mM 3-MA + 10 μM GENI + 10 μM CQ). The optimum concentration of 3MA inhibitor was referenced in the other report. At first, 0.5 mL of serum-free DMEM (plus 1% dual anti-penicillin–streptomycin) containing 3-MA (5 mM) was used to replace the medium in two groups as well as 0.5 mL of serum-free DMEM was added in the other groups, respectively. After treating for 6 h, 0.5 mL of DMEM containing DMSO (0.5%), Rap (500 nM) + CQ (10 μM), GENI (10 μM) + CQ (10 μM), CQ (10 μM), and GENI (10 μM) + CQ (10 μM) was added into the corresponding group, respectively. After 18 h, we removed the medium and washed cells twice with 1× assay buffer containing 5% FBS. We then added CYTO-ID Green detection reagent and Hocchst 33342 nuclear stain to the cells, which were incubated at 37 °C for 45 min. After three washes with 1× assay buffer, we fixed cells with 4% paraformaldehyde for 20 min. After three washes with 1× assay buffer, we observed the cells with an upright two-photon confocal microscope (Olympus FV1000BX-51, Tokyo, Japan)."}, "[4]": {"conditions": "SPR, association rate, read-out: Ka"}},
  "data": [
    {"compound": "CC(C)CCOC(=O)C1=CO[C@@H](O[C@@H]2O[C@H](CO)[C@@H](O)[C@H](O)[C@H]2O)C2C(CO)=CCC12", "note": "(some centres unmarked) [GENI, Geniposidic 4-isoamyl ester]", "values": [
      {"measurement": "dose-dependent response in SPR", "setting": "[1]; D148 replaced with A148", "value": "No significant dose-dependent response"},
      {"measurement": "kon", "setting": "[1]; [4]", "value": 9360, "unit": "M⁻¹ s⁻¹"},
      {"measurement": "kon", "setting": "[2]; [4]", "value": 2140, "unit": "M⁻¹ s⁻¹"},
      {"measurement": "dose-dependent relationship in SPR", "setting": "[2]; point mutation of D156", "value": "dose-dependent relationship was lost"},
      {"measurement": "Kd", "setting": "[3]; SPR", "value": 6.46, "unit": "µM"},
      {"measurement": "kon", "setting": "[3]; [4]", "value": 808, "unit": "M⁻¹ s⁻¹"},
      {"measurement": "response (RU) in SPR", "setting": "[3]; point mutation of D316, versus wild-type", "value": "significantly reduced"},
      {"measurement": "stability of p53 against pronase (DARTS)", "setting": "p53", "value": "no obvious effect"},
      {"measurement": "stability of AMPK against pronase (DARTS)", "setting": "AMPK", "value": "dramatically enhanced the stability"},
      {"measurement": "fluorescence intensity of autophagosomes", "setting": "PC12 cells; 10 μM GENI + 10 μM CQ, compared with the control group", "value": "significantly increased"},
      {"measurement": "autophagy effect relative to positive control Rap at 500 nM", "setting": "PC12 cells; GENI at 10 μM", "value": "comparable"}
    ]}
  ]
}
